Where a name gives a salt, the structure may show the parent alone.

The target in this test is T1, human orexin-2 (hOX2) receptors (Homo sapiens, UniProt O43614).
T1 construct: expressed in transfected cells
T1 sequence (O43614 1-444): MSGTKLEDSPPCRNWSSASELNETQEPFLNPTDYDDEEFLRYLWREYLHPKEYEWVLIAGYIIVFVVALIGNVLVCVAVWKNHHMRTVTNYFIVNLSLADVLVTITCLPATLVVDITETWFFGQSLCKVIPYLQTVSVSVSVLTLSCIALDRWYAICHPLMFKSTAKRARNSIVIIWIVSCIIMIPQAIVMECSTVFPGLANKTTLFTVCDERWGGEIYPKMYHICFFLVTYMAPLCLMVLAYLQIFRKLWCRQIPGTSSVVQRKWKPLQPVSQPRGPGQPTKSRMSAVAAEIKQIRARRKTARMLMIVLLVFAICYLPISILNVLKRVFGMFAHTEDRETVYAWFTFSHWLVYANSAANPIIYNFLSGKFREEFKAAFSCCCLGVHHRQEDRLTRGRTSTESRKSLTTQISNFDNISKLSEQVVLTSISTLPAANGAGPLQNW
The experiment in a line: Intracellular Ca2+ mobilization assay (FLIPR), antagonism of orexin-A. Type of test: cell-based. Conditions: CHO(dHFr-) cells stably expressing hOX2; orexin-A at EC80 as agonist; antagonist applied 25 min before; Kb=IC50/(1+[A]/EC50); read-out: Kb (μM) OX2R (human). How it is done: Intracellular Ca^2+ Mobilization Assay
The Chinese Hamster Ovary (dHFr—) mutant cell line stably expressing human orexin-1 (hOX1) or human orexin-2 (hOX2) receptors were maintained in Dulbecco's Modified Eagle Medium (1X) with GlutaMax™ 1, 4500 mg/L D-Glucose and Sodium Pyruvate (Catalog No. 31966-021, Invitrogen, Carlsbad, Calif.), 5% dialyzed fetal calf serum (Catalog No. 26400-044), 100 μg/ml penicillin and 100 μg/ml streptomycin. The cells were seeded at 5×10^4 cells/well in the poly-D-lysine treated, 96-well, black/clear-bottomed plates (Catalog No. BD356640, BD Biosciences, Palo Alto, Calif.). 24 h later, the cells were loaded for 1 h at 37° C. with 4 μM Flou-4 acetoxymethyl ester (Catalog No. F-14202, Molecular Probes, Eugene, Oreg.) in FLIPR buffer (1×HBSS, 20 mM HEPES, 2.5 mM Probenecid). Hanks' Balanced Salt Solution (HBSS) (10×) (catalog No. 14065-049) and HEPES (1M) (catalog No. 15630-056) were purchased from Invitrogen, Carlsbad, Calif. Probenecid (250 mM) (catalog No. P8761) was from Sigma, Buchs, Switzerland. The cells were washed five times with FLIPR buffer to remove excess dye and intracellular calcium mobilization, [Ca^2+]i were measured using a Fluorometric Imaging Plate Reader (FLIPR-96, Molecular Devices, Menlo Park, Calif.) as described previously (Malherbe et al., Mol. Pharmacol., 64, 823-832, 2003). Orexin A (catalog No. 1455, Toris Cookson Ltd, Bristol, UK) was used as agonist. Orexin A (50 mM stock solution in DMSO) was diluted in FLIPR buffer +0.1% BSA. The EC50 and EC80 values of orexin-A were measured daily from standard agonist concentration-response curves in CHO(dHFr—)—OX1R and —OX2R cell lines. All compounds were dissolved in 100% DMSO. Inhibition curves were determined by addition of 11 concentrations (0.0001-10 μM) of inhibitory compounds and using EC80 value of orexin-A as agonist (a concentration which gave 80% of max agonist response, determined daily). The antagonists were applied 25 min (incubation at 37° C.) before the application of the agonist. Responses were measured as peak increase in fluorescence minus basal, normalized to the maximal stimulatory effect induced by EC80 value of orexin-A or orexin- B. Inhibition curves were fitted according to the Hill equation: y=100/(1+(x/IC50)^nH), where nH=slope factor using Excel-fit 4 software (Microsoft). Kb values were calculated according to the following equation Kb=IC50/(1+[A]/EC50) where A is the concentration of agonist added which is very close to agonist EC80 value, and IC50 and EC50 values were derived from the antagonist inhibition and orexin-A or B agonist curves, respectively.
On the technique in general: A change in cytosolic calcium serves as a functional read-out for many receptors and channels.
As a reminder, the Kb is the equilibrium dissociation constant of an antagonist, usually derived from a functional assay. For `O=C([C@@H](O)c1ccc(F)cc1)N(CCc1ccc(C(F)(F)F)nc1)c1ccc2c(c1)CCCC2` [Example 60, (S)-2-(4-Fluoro-phenyl)-2-hydroxy-N-(5,6,7,8-tetrahydro-naphthalen-2-yl)-N-[2-(6-trifluoromethyl-pyridin-3-yl)-ethyl]-acetamide], the Kb came to 0.0053 µM.
The same measure for `COc1cc(N(CCc2ccc(C(F)(F)F)nc2)C(=O)[C@@H](O)c2ccc(F)cc2)ccc1C` [Example 61, (S)-2-(4-Fluoro-phenyl)-2-hydroxy-N-(3-methoxy-4-methyl-phenyl)-N-[2-(6-trifluoromethyl-pyridin-3-yl)-ethyl]-acetamide]: 0.0026 µM.
`O=C([C@@H](O)c1ccccc1)N(CCc1ccc(C(F)(F)F)nc1)c1ccc2c(c1)CCCO2` [Example 62]: the Kb came out at 0.011 µM.
The same measure for `O=C([C@@H](O)c1ccccc1)N(CCc1ccc(C(F)(F)F)nc1)c1ccc2c(c1)[C@@H](O)CCO2` [Example 63, (S)-2-Hydroxy-N-((S)-4-hydroxy-chroman-6-yl)-2-phenyl-N-[2-(6-trifluoromethyl-pyridin-3-yl)-ethyl]-acetamide]: 0.0243 µM.
Regarding `CC(=O)O[C@H](C(=O)N(CCc1ccc(C(F)(F)F)cn1)c1ccc(C)c(C)c1)c1ccccc1` [Example 65, Acetic acid (S)-{(3,4-dimethyl-phenyl)-[2-(5-trifluoromethyl-pyridin-2-yl)-ethyl]-carbamoyl}-phenyl-methyl ester], the Kb was 0.0475 µM.
For the molecule `Cc1ccc(N(CCc2ccc(Cl)cn2)C(=O)[C@@H](O)c2ccccc2)cc1C` [Example 66, (S)—N-[2-(5-Chloro-pyridin-2-yl)-ethyl]-N-(3,4-dimethyl-phenyl)-2-hydroxy-2-phenyl-acetamide], the Kb was 0.0057 µM.
`Cc1csc(CCN(C(=O)[C@@H](N)c2ccccc2)c2ccc(C)c(C)c2)n1` [Example 67, (S)-2-Amino-N-(3,4-dimethyl-phenyl)-N-[2-(4-methyl-thiazol-2-yl)-ethyl]-2-phenyl-acetamide hydrochloride]: the antagonist dissociation constant (Kb) came to 0.073 µM.
The same measure for `Cc1ccc(N(CCc2ccc(F)cn2)C(=O)[C@@H](O)c2ccccc2)cc1C` [Example 68, (S)—N-(3,4-Dimethyl-phenyl)-N-[2-(5-fluoro-pyridin-2-yl)-ethyl]-2-hydroxy-2-phenyl-acetamide]: 0.0232 µM; for `Cc1cc(CCN(C(=O)[C@@H](O)c2ccccc2)c2ccc(C)c(C)c2)on1` [Example 70, (S)—N-(3,4-Dimethyl-phenyl)-2-hydroxy-N-[2-(3-methyl-isoxazol-5-yl)-ethyl]-2-phenyl-acetamide]: 0.0863 µM; for `Cc1ccc(N(CCc2ccc(C(F)(F)F)cn2)C(=O)[C@@H](O)c2ccc(F)cc2)cc1F` [Example 80, (S)—N-(3-Fluoro-4-methyl-phenyl)-2-(4-fluoro-phenyl)-2-hydroxy-N-[2-(5-trifluoromethyl-pyridin-2-yl)-ethyl]-acetamide]: 0.0289 µM.
The same measure for `Cc1cc(N(CCc2ccc(C(F)(F)F)cn2)C(=O)[C@@H](O)c2ccc(F)cc2)ccc1F` [Example 81, (S)—N-(4-Fluoro-3-methyl-phenyl)-2-(4-fluoro-phenyl)-2-hydroxy-N-[2-(5-trifluoromethyl-pyridin-2-yl)-ethyl]-acetamide]: 0.0197 µM; for `O=C([C@@H](O)c1ccc(F)cc1)N(CCc1ccc(C(F)(F)F)cn1)c1ccc2c(c1)CCC2` [Example 86, (S)-2-(4-Fluoro-phenyl)-2-hydroxy-N-indan-5-yl-N-[2-(5-trifluoromethyl-pyridin-2-yl)-ethyl]-acetamide]: 0.0378 µM.
Then `O=C([C@@H](O)c1ccc(F)cc1)N(CCc1ccc(C(F)(F)F)cn1)c1ccc2c(c1)CCO2` [Example 87, (S)—N-(2,3-Dihydro-benzofuran-5-yl)-2-(4-fluoro-phenyl)-2-hydroxy-N-[2-(5-trifluoromethyl-pyridin-2-yl)-ethyl]-acetamide], with 0.0198 µM.
Consider `COc1cc(N(CCc2ccc(C(F)(F)F)cn2)C(=O)[C@@H](O)c2ccc(F)cc2)ccc1F` [Example 92, (S)—N-(4-Fluoro-3-methoxy-phenyl)-2-(4-fluoro-phenyl)-2-hydroxy-N-[2-(5-trifluoromethyl-pyridin-2-yl)-ethyl]-acetamide], for which the antagonist dissociation constant (Kb) was found to be 0.0146 µM.
With `Cc1n[nH]c2ccc(N(CCc3ccc(C(F)(F)F)nc3)C(=O)[C@@H](O)c3ccc(F)cc3)cc12` [Example 106, (S)-2-(4-Fluoro-phenyl)-2-hydroxy-N-(3-methyl-1H-indazol-5-yl)-N-[2-(6-trifluoromethyl-pyridin-3-yl)-ethyl]-acetamide], the Kb stood at 0.0249 µM.
Then `Cc1nn(C)c2ccc(N(CCc3ccc(C(F)(F)F)nc3)C(=O)[C@@H](O)c3ccc(F)cc3)cc12` [Example 107, (S)—N-(1,3-Dimethyl-1H-indazol-5-yl)-2-(4-fluoro-phenyl)-2-hydroxy-N-[2-(6-trifluoromethyl-pyridin-3-yl)-ethyl]-acetamide], with 0.0046 µM; and “(S)-2-Hydroxy-N-(3-methoxy-phenyl)-2-phenyl-N-[2-(6-trifluoromethyl-pyridin-3-yl)-ethyl]-acetamide [Example 58]”, with 0.0167 µM.
